From patent publication US8853373B2, “Method and reagent for gene sequence analysis” (Hitachi, Ltd., priority 2009, dated 2014) come the findings set out here.

Assay type in all cases: biochemical
One test has as its system DNA Sequence S2. The experiment in a line: Sequence analysis by stepwise chemical reaction (pyrogram), PPDK system, Condition 4. The note with it: DNA Sequence S2 (3 consecutive nucleotides). Here is the method:
Therefore, a sequence having 3 consecutive nucleotides of T was analyzed for comparison. Analyzed DNA Sequence S2 and a primer P3 are described below.
Of note is that Sequence P3 represents a primer sequence. This primer can complementarily bind to the underlined portion of the above DNA Sequence S2. FIGS. 16 to 20 show the results of a sequence analysis. In addition, the reagent conditions were listed together in the following Table 3.
In this experiment, an enzyme system which converts PPi into ATP has employed an enzyme system in which PPi and AMP are converted into ATP by PPDK as described in the conventional technique (Patent Literature 4). The items of the figure are identical to those of FIG. 15. At the bottom of the respective figures, the injected nucleotide types are designated. At the top, the nucleotide types which have been incorporated into a complementary DNA sequence of analysis object are designated. The substrate was injected in the order of “bases A, T, C, and G”, and 7 cycles were analyzed. As indicated in the target sequence, in this analysis, two regions (Cycle 4 and Cycle 7) having 3 consecutive nucleotides of A incorporated are present. Because of this, a difference in the ability of continuous incorporation of a nucleic acid substrate that is used as a nucleotide A can be assessed. Hereinafter, the details are described.
First, three kinds of the substrates (A3d, dATPαS, and C^7dATP) having the final concentration of 2 μM were used. The results of a sequence analysis will be described (FIGS. 16 to 20). […] At the time of dispensing A (surrounded by the circle ◯) which represented the injected nucleotide type, A3d was used. […] Accordingly, as the signal corresponding to A at the first cycle indicated, background luminescence was observed. Due to this phenomenon, the luminescence signal corresponding to nucleotide A constantly included the increased background luminescence. The symbol • in the figure denotes elongation luminescence corresponding to a nucleotide sequence of a sample. In contrast, the major luminescence without corresponding to the nucleotide sequence is represented by the symbol ∇. […] At the time of dispensing A (surrounded by the circle ◯) which represented the injected nucleotide type, dATPαS was used. The resulting pyrogram and the nucleotide sequence of a sample were compared. The symbol • in the figure denotes elongation luminescence corresponding to a nucleotide sequence of a sample. In contrast, the major luminescence without corresponding to the nucleotide sequence is represented by the symbol ∇. […] At the time of dispensing A (surrounded by the circle ◯) which represented the injected nucleotide type, C^7dATP was used. […] Accordingly, as the signal corresponding to A at the first cycle indicated, big background luminescence was observed. Due to this phenomenon, the luminescence signal corresponding to nucleotide A constantly included the increased background luminescence. The symbol x in the figure denotes just a background luminescence signal. The symbol • denotes elongation luminescence corresponding to a nucleotide sequence of a sample. However, the symbol (•) denotes inclusion of both elongation-derived luminescence and background luminescence. In contrast, the major luminescence without corresponding to the nucleotide sequence is represented by the symbol ∇.

Another test has as its target luciferase (Photinus pyralis, UniProt P08659). The experiment in a line: Evaluation of substrate specificity for luciferase (luminescence on dispensing the substrate). The procedure:
In respect to the nucleic acid substrates synthesized, whether or not the substrates became a substrate for luciferase was evaluated by the following procedure. First, a luminescence reagent designated in Condition 1 of Table 1 was prepared.
Next, a reaction solution was prepared using 20 μL of this luminescence reagent, and 0.2 μL of a nucleic acid substrate of evaluation subject was injected. Then, luminescence emitted at this occasion was estimated. FIG. 6 is a graph showing the amount of luminescence when ATP, dATP, C^7dATP, and dATPαS are each dispensed as a substrate. The abscissa (C) indicates a final concentration of the compound in a reaction reagent. For example, when 0.2 μl of 1 μM substrate is dispensed, the final concentration is about 0.01 μM. An amount of luminescence (U) indicated in the ordinate was plotted by normalizing the amount of luminescence at 0.01 μM of ATP as 1. From this graph, the amount of luminescence (U) is found to be proportional to the final concentration (C). Because of this, as a substrate specificity (or substrate reactivity) for luciferase, the value (S) indicating the amount of luminescence per unit concentration is defined as described below. Substrate specificity (S)≡Amount of luminescence (U)/Final concentration (C)[μM]×0.01 (In this Definition, the Substrate Specificity of ATP is Normalized as 1).
The four points designated in the left side of the graph indicate each substrate specificity (S) of ATP, dATP, dATPαS, and C^7dATP. For a sequencing method using a stepwise chemical reaction represented by pyrosequencing, the amount of ATP generated from pyrophosphate produced in elongation of one nucleotide is equivalent to the amount of a target present in a reaction solution when all of the targets have been elongated. In addition, elongation of a plurality of nucleotides causes the amount to be multiplied by the number of the nucleotides. Generally speaking, the amount of a nucleic acid substrate which should be dispensed per reaction for sequencing requires about 100 times the amount of the target for analysis. This is because a sequenced region may sometimes contain about 10 consecutive identical nucleotides; and a reaction solution for this sequencing method has a substrate-degrading enzyme together, so that the nucleic acid elongation and substrate degradation are competed. Shortage of the substrates causes incomplete elongation, so that the following sequence analysis cannot be carried out. […] As a countermeasure against it, the substrate having about 100 times the target amount which has been generally used is preferably dispensed per reaction.
In this Example, the synthesized nucleic acid substrates were purified by liquid chromatography. However, removal of pyrophosphate that had been incorporated during the synthesis may be insufficiently carried out only by liquid chromatography-mediated purification. At that occasion, the present inventors treated the synthesized nucleic acid substrates by a pyrophosphate-degrading enzyme (PPase) to decompose the pyrophosphate. Specifically, the synthesized nucleic acid substrate was diluted in a reaction solution (100 mM Tris-Acetate, 0.5 mM EDTA, 5 mM Mg-Acetate, 1 mM DTT, pH 7.5) at a concentration of 500 μM. Then, PPase was added at 0.2 mU/μL, and the mixture was reacted at 30° C. for 30 minutes, which caused degradation of pyrophosphate in the solution. This method represents one example. […]

Test [1] has as its system nucleotide T (Sequence TG). The experiment in a line: Affinity between synthetic substrates and nucleotide T (one-nucleotide elongation, Sequence TG, luminescence). The note with it: compared with dATPαS / other substrates. The procedure: (§1) Incorporation into nucleic acid was evaluated as follows. First, one of the above sequences was used as a target. Next, the primer was made to complementarily bind to the target. Then, an elongation experiment was carried out using the respective nucleic acid substrates for that sample. The synthesized nucleic acid substrate requires an affinity (complementary characteristics) with nucleotide T, and exclusivity of the other nucleotides (G, C, and A). The affinity with nucleotide T was evaluated using the Sequence TG and the primer. The exclusivity of the other nucleotides (G, C, and A) was evaluated using the respective Sequence GA, Sequence CG, and Sequence AG, and the primer. In addition, Sequence 5T was used for the evaluation of an ability of continuous incorporation into nucleotide T.
A sequencing method using a stepwise chemical reaction is described below. […] After that, 0.5 μL, (target: […], primer: […]) of this sample solution, 20 of a luminescence reagent which is designated in Condition 2 of Table 1, and 0.2 μL of a polymerase enzyme (the final concentration: 0.05 U/4) were mixed to prepare a reaction reagent (the final volume was 20.7 μL). […] The reaction has a luminescence peak a few seconds after the reaction initiation. […] This luminescence peak value is virtually proportional to the amount of generated pyrophosphate. […]

In test [2] the test system is nucleotides G, C, and A (Sequence GA, Sequence CG, Sequence AG). The experiment in a line: Exclusivity of the other nucleotides (G, C, and A), elongation luminescence. The note with it: for Exclusivity of the other nucleotides (G, C, and A): CG, AG, luminescence normalized to dCTP, dGTP, dTTP as 1. Here is the method: as §1
(§2) A sequencing method using a stepwise chemical reaction is described below. First, 35 μL of ultrapure water, 5 μL of oligo DNA (10 μM) of analysis object (target), and 5 μL of a primer (20 μM) were mixed with 5 μL of a hybridization buffer (10 mM Tris-Acetate, 20 mM Mg-Acetate, pH 7.75) (a sample solution: the final volume was 50 μL). Then, the sample solution was heated at 94° C. for 20 seconds, and reacted at a Tm temperature of the primer for 2 minutes. After that, 0.5 μL, (target: […], primer: […]) of this sample solution, 20 of a luminescence reagent which is designated in Condition 2 of Table 1, and 0.2 μL of a polymerase enzyme (the final concentration: 0.05 U/4) were mixed to prepare a reaction reagent (the final volume was 20.7 μL). To this reaction reagent was added 0.4 μL of 100 μM nucleic acid substrate (the final concentration 2 μM). When nucleic acid elongation occurs, bioluminescence derived from pyrophosphate of the elongation reaction product can be observed. The reaction has a luminescence peak a few seconds after the reaction initiation. […] This luminescence peak value is virtually proportional to the amount of generated pyrophosphate. Measurement of the peak value enables a degree of nucleic acid elongation to be estimated.
Next, with regard to the respective synthetic substrates, the exclusivity of the other nucleotides (G, C, and A) was assessed using each of Sequence GA, Sequence CG, and Sequence AG and the primer. […] In addition, a background luminescence component of the respective substrates was compensated by taking its difference into account in a manner similar to that of the preceding figures.

Test [3] has as its system 5 consecutive nucleotides of T (Sequence 5T). Briefly: Ability of incorporation into consecutive nucleotides of T (Sequence 5T), three consecutive injections. The note with it: 5 consecutive nucleotides; final concentration 4 μM; E1 = luminescence of 2nd and 3rd injections / total of 1st to 3rd. The procedure: as §1, §2
Next, by using Sequence 5T, the ability of incorporation of the respective synthetic substrates into consecutive nucleotides of T was evaluated by the following procedure. The reaction reagent was prepared by using Sequence 5T as a target oligo in the same manner as in the case of evaluation of elongation of one nucleotide as described before. In this case, a target oligo 111 and a primer 112 form a complementary strand binding as depicted in FIG. 11(1). Due to the above, when dATP is dispensed into this reaction reagent as a substrate, five molecules of the substrate are consecutively elongated per target molecule as a primer having the substrate at the 3′ end 113, thereby releasing five molecules of pyrophosphate. If the elongation for all the five nucleotides is not completed, a portion of the nucleotide T remains in a single-stranded state. Because of this, when substrate dATP is dispensed again, the portion is elongated only in the case where a portion of incomplete elongation remains. Therefore, the release of pyrophosphate can be detected as luminescence. […] In addition, substrate dCTP, which is complementary to nucleotide G 114, was subsequently dispensed twice to detect luminescence. […]

Each structure is given as a SMILES string.

Chain of luciferase (P08659 whole entry, species assumed): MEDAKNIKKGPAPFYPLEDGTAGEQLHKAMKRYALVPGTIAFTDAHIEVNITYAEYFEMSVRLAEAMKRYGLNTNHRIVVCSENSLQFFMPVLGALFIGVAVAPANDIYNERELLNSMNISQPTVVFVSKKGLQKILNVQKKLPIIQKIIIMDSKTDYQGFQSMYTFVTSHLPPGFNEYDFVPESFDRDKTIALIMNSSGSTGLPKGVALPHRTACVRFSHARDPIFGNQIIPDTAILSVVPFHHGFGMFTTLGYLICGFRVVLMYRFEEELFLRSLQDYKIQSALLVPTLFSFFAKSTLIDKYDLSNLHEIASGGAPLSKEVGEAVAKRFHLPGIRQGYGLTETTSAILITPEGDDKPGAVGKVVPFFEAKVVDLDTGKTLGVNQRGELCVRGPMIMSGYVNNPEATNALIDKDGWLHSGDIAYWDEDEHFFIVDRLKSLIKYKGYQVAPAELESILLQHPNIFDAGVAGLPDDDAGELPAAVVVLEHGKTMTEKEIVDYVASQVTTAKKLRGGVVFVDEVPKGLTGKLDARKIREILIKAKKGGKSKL

Regarding `Nc1ncnc2c1ccn2[C@H]1C[C@H](O)[C@@H](COP(=O)(O)OP(=O)(O)OP(=O)(O)O)O1` [C^7dATP, 7-deaza-2′-deoxyadenosine triphosphate], the “Sequence analysis result as substitute for dATP” value is reported as “substrate-derived background luminescence was large, so that the precise sequence identification was found to be difficult” in the test on DNA Sequence S2 (final concentration 2 μM, 7 cycles) and “incomplete elongation for the nucleotide G at Cycle 5 was not improved” with DNA Sequence S2 (final concentration 4 μM). Also, the “Substrate specificity for luciferase compared with that of dATPαS” value on luciferase (FIG. 7) is on record as “about two orders higher”. Further, the “Substrate specificity (S) for luciferase, relative to that of ATP” value on luciferase (amount of luminescence per unit concentration, substrate specificity of ATP normalized as 1) is “about 1/250”.

Consider `CCCNC(=O)/C=C/c1cn([C@H]2CC(O)[C@@H](COP(=O)(O)OP(=O)(O)OP(=O)(O)O)O2)c2ncnc(N)c12` (some centres unmarked) [A3c], for which the “Reaction rate of nucleic acid elongation (luminescence profile)” value in test [1] is on record as “higher reaction rate”. Besides, in test [2], the “Exclusivity of nucleotide G” value is “a little poor exclusivity”; the “Exclusivity of the other nucleotides (G, C, and A)” value (“Exclusivity … (G, C, and A)” for short) was “generally good”.

Consider `Nc1ncnc2c1c(/C=C/C(=O)NCCc1ccccn1)cn2[C@H]1CC(O)[C@@H](COP(=O)(O)OP(=O)(O)OP(=O)(O)O)O1` (some centres unmarked) [A3b], for which the “Exclusivity … (G, C, and A)” value in test [2] was “excellent exclusivity”. Further, the “Rate of Incomplete Elongation after the First Injection (%)” value in test [3] was determined as 11.2 ± 2.9%.

Regarding `NCCCCCCNC(=O)CCc1cn([C@H]2CC(O)[C@@H](COP(=O)(O)OP(=O)(O)OP(=O)(O)O)O2)c2ncnc(N)c12` (some centres unmarked) [B4], in test [2], the “Exclusivity … (G, C, and A)” value is given as “exhibits luminescence”.

Consider `Nc1ncnc2c1c(/C=C/C(=O)NCCc1ccccc1)cn2[C@H]1CC(O)[C@@H](COP(=O)(O)OP(=O)(O)OP(=O)(O)O)O1` (some centres unmarked) [A3a], for which the “Exclusivity … (G, C, and A)” value in test [2] is “exhibits luminescence for all the three kinds of nucleotides”.
